Source: patent publication US8461329B2, “Isoquinoline derivative” (Taisho Pharmaceutical Co., Ltd., priority 2008, dated 2013)

target: T1, CRTH2 (KB8 cells) (Homo sapiens, UniProt Q9Y5Y4); experiment: CRTH2 antagonist test (PGD2-induced intracellular calcium ion concentration increase in KB8 cells); type: cell-based; settings: PGD2 final concentration 100 nM, Fluo-4-AM fluorescence, read-out: antagonist activity (IC50 value, inhibition of calcium ion concentration increase)
T1 construct: host or cells: KB8 cells (human CRTH2 expression cell)
T1 sequence (Q9Y5Y4 1-395): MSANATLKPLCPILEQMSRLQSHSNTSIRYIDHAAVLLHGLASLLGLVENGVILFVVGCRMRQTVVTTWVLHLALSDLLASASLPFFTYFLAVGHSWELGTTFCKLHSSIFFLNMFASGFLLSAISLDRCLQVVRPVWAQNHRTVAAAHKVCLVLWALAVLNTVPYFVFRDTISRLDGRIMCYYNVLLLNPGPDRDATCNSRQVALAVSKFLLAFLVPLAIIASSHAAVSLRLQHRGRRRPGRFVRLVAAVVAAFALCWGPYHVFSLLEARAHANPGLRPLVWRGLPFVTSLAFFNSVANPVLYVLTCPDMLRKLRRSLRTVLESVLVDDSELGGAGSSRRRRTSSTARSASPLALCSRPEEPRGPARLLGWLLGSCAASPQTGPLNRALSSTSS
In short: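 Fluo-4-AM-loaded KB8 cells in HBSS with 10 mM HEPES and 1 mM CaCl2 received compound plus PGD2 (final 100 nM); peak fluorescence followed over time. Inhibition was computed against no-compound and unlabelled-PGD2 controls, and IC50 obtained from a dose-response curve.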

Structure (SMILES)	IC50 [nM]
COc1ccc(CCNC(=O)c2ccc(Cc3ncc(CC(=O)O)c4ccccc34)cc2)cc1C [Example 171]	50 to 500
O=C(O)Cc1cnc(C(=O)c2ccc(NC(=O)c3c(F)cccc3Cl)cc2)c2ccccc12 [Example 36]	≥ 1000
O=C(O)Cc1cnc(Cc2ccc(C(=O)NCCC3CCCCC3)cc2)c2ccccc12 [Example 187]	< 50
O=C(O)Cc1cnc(Cc2ccc(C(=O)Nc3ccc(Cl)c(Cl)c3)cc2)c2ccccc12 [Example 158]	< 50
O=C(O)Cc1cnc(C(=O)c2ccc(NC(=O)c3cc(F)c(F)c(F)c3F)cc2)c2ccccc12 [Example 118]	500 to 1000
Cc1ccc(Cl)c(C(=O)Nc2ccc(C(=O)c3ncc(CC(=O)O)c4ccccc34)cc2)c1F [Example 49]	≥ 1000
O=C(O)Cc1cnc(C(=O)c2ccc(NC(=O)c3ccc(F)c(F)c3F)cc2)c2ccccc12 [Example 52]	50 to 500
O=C(NCCc1ccc(Cl)cc1)c1ccc(Cc2ncc(Cc3nnn[nH]3)c3ccccc23)cc1 [Example 257, N-[2-(4-chlorophenyl)ethyl]-4-{[4-(1H-tetrazol-5-ylmethyl)isoquinolin-1-yl]methyl}benzamide]	≥ 1000
O=C(O)Cc1cnc(C(=O)c2ccc(NC(=O)c3cc(F)c(Cl)cc3Cl)cc2)c2ccccc12 [Example 56]	50 to 500
COc1ccc(CCNC(=O)c2ccc(Cc3ncc(CC(=O)O)c4ccccc34)cc2)cc1Cl [Example 170]	50 to 500
O=C(O)Cc1cnc(C(=O)c2ccc(NC(=O)c3cccc4ccccc34)cc2)c2ccccc12 [Example 46]	50 to 500
O=C(O)Cc1cnc(Cc2ccc(C(=O)NCCc3ccc(Cl)c(Cl)c3)cc2)c2ccccc12 [Example 160]	< 50
O=C(O)Cc1cnc(C(=O)c2ccc(NC(=O)c3ccc(Cl)cc3Cl)cc2)c2ccccc12 [Example 41]	50 to 500
CCCCNC(=O)c1ccc(Cc2ncc(CC(=O)O)c3ccccc23)cc1 [Example 186]	500 to 1000
O=C(O)Cc1cnc(C(=O)c2ccc(Oc3ccccc3)cc2)c2ccccc12 [Example 145]	≥ 1000
CCCOc1ccc(CCNC(=O)c2ccc(Cc3ncc(CC(=O)O)c4ccccc34)cc2)cc1 [Example 241]	< 50

Structure (SMILES)	IC50 [nM]
O=C(O)Cc1cnc(Oc2ccc(C(=O)NCCc3ccc(Cl)cc3)cc2)c2ccccc12 [Example 261, [1-(4-{[2-(4-chlorophenyl)ethyl]carbamoyl}phenoxy)isoquinolin-4-yl]acetic acid]	≥ 1000
O=C(O)Cc1cnc(Cc2ccc(C(=O)NCCc3cc(F)cc(C(F)(F)F)c3)cc2)c2ccccc12 [Example 215]	50 to 500
O=C(O)Cc1cnc(Cc2ccc(C(=O)NCCc3ccc4c(c3)CCCC4)cc2)c2ccccc12 [Example 218]	< 50
O=C(O)Cc1cnc(Cc2ccc(C(=O)NCCc3ccc(Oc4ccccc4)cc3)cc2)c2ccccc12 [Example 195]	< 50
N#Cc1ccc(CCNC(=O)c2ccc(Cc3ncc(CC(=O)O)c4ccccc34)cc2)cc1 [Example 223]	50 to 500
COc1ccc(C(=O)Nc2ccc(C(=O)c3ncc(CC(=O)O)c4ccccc34)cc2)cc1OC [Example 106]	50 to 500
CN(C)c1ccc(CCNC(=O)c2ccc(Cc3ncc(CC(=O)O)c4ccccc34)cc2)cc1 [Example 206]	50 to 500
NC(=O)Cc1cnc(Cc2ccc(C(=O)NCCc3ccc(Cl)cc3)cc2)c2ccccc12 [Example 256, 4-{[4-(2-amino-2-oxoethyl)isoquinolin-1-yl]methyl}-N-[2-(4-chlorophenyl)ethyl]benzamide]	≥ 1000
O=C(O)Cc1cnc(C(=O)c2ccc(NC(=O)COc3ccc(Cl)cc3)cc2)c2ccccc12 [Example 87]	50 to 500
COc1ccc(/C=C/C(=O)Nc2ccc(C(=O)c3ncc(CC(=O)O)c4ccccc34)cc2)cc1 [Example 84]	< 50
Cc1ccc(C)c(CCNC(=O)c2ccc(Cc3ncc(CC(=O)O)c4ccccc34)cc2)c1 [Example 169]	50 to 500
C=Cc1ccc(C(=O)Nc2ccc(C(=O)c3ncc(CC(=O)O)c4ccccc34)cc2)cc1 [Example 64]	< 50
CCCCCCc1ccc(C(=O)Nc2ccc(C(=O)c3ncc(CC(=O)O)c4ccccc34)cc2)cc1 [Example 120]	< 50
O=C(O)Cc1cnc(Cc2ccc(C(=O)NCCc3cccc(Br)c3)cc2)c2ccccc12 [Example 172]	50 to 500
O=C(O)Cc1cnc(C(=O)c2ccc(NC(=O)c3ccc(C(=O)O)cc3)cc2)c2ccccc12 [Example 79]	≥ 1000
O=C(O)Cc1cnc(Cc2ccc(C(=O)NCCc3ccc4ccccc4n3)cc2)c2ccccc12 [Example 202]	50 to 500

Now from value to molecule:

IC50 [nM]	Structure (SMILES)
< 50	O=C(O)Cc1cnc(Cc2ccc(C(=O)NCCc3cccc(Cl)c3)cc2)c2ccccc12 [Example 155]
< 50	O=C(O)Cc1cnc(Cc2ccc(C(=O)Nc3ccc(Cl)cc3)cc2)c2ccccc12 [Example 159]
50 to 500	O=C(O)Cc1cnc(Cc2ccc(C(=O)NCCc3ccccc3F)cc2)c2ccccc12 [Example 181]
50 to 500	Cc1ccc(CCNC(=O)c2ccc(Cc3ncc(CC(=O)O)c4ccccc34)cc2)cc1C [Example 168]
< 50	O=C(O)Cc1cnc(Cc2ccc(C(=O)NCCc3ccc(F)cc3Cl)cc2)c2ccccc12 [Example 233]
< 50	Cc1ccc(CCNC(=O)c2ccc(Cc3ncc(CC(=O)O)c4ccccc34)cc2)cc1F [Example 204]
< 50	O=C(O)Cc1cnc(Cc2ccc(C(=O)NCCc3cc4ccccc4o3)cc2)c2ccccc12 [Example 249]
< 50	O=C(O)Cc1cnc(C(=O)c2ccc(NC(=O)c3ccc(C4CCCCC4)cc3)cc2)c2ccccc12 [Example 114]
≥ 1000	COc1cc(CCNC(=O)c2ccc(Cc3ncc(CC(=O)O)c4ccccc34)cc2)cc(OC)c1O [Example 209]
50 to 500	O=C(O)Cc1cnc(Cc2ccc(C(=O)NCC3(c4ccc(Cl)cc4)CC3)cc2)c2ccccc12 [Example 246]
< 50	O=C(O)Cc1cnc(C(=O)c2ccc(NC(=O)c3cc4ccccc4cn3)cc2)c2ccccc12 [Example 113]
50 to 500	Cc1cc(F)ccc1C(=O)Nc1ccc(C(=O)c2ncc(CC(=O)O)c3ccccc23)cc1 [Example 61]
< 50	O=C(O)Cc1cnc(Cc2ccc(C(=O)NCCc3csc4ccccc34)cc2)c2ccccc12 [Example 230]
< 50	C/C(=C\c1ccccc1)C(=O)Nc1ccc(C(=O)c2ncc(CC(=O)O)c3ccccc23)cc1 [Example 78]
500 to 1000	CC(C)=CC(=O)Nc1ccc(C(=O)c2ncc(CC(=O)O)c3ccccc23)cc1 [Example 65]
≥ 1000	COc1ccc(CCNC(=O)c2ccc(Cc3ncc(CC(=O)O)c4ccccc34)cc2)cc1OC [Example 189]
< 50	COc1ccc2[nH]c(C(=O)Nc3ccc(C(=O)c4ncc(CC(=O)O)c5ccccc45)cc3)cc2c1 [Example 96]

IC50 [nM]	Structure (SMILES)
< 50	O=C(O)Cc1cnc(C(=O)c2ccc(NC(=O)c3cnc4ccccc4c3)cc2)c2ccccc12 [Example 112]
500 to 1000	O=C(O)Cc1cnc(C(=O)c2ccc(NC(=O)c3cc(F)ccc3Cl)cc2)c2ccccc12 [Example 42]
< 50	COc1cc(C(=O)Nc2ccc(C(=O)c3ncc(CC(=O)O)c4ccccc34)cc2)ccc1C [Example 100]
500 to 1000	O=C(O)Cc1cnc(C(=O)c2ccc(NC(=O)c3ccc4cnccc4n3)cc2)c2ccccc12 [Example 124]
50 to 500	O=C(O)Cc1cnc(Cc2ccc(C(=O)NCCC3CC3)cc2)c2ccccc12 [Example 239]
< 50	O=C(O)Cc1cnc(Cc2ccc(C(=O)NCCc3ccc(Cl)c(F)c3)cc2)c2ccccc12 [Example 221]
≥ 1000	O=C(O)Cc1cnc(C(=O)c2ccc(NC(=O)c3ccccc3Br)cc2)c2ccccc12 [Example 25]
≥ 1000	O=C(O)Cc1cnc(Cc2ccc(C(=O)NCCc3cccnc3)cc2)c2ccccc12 [Example 176]
< 50	O=C(O)Cc1cnc(C(=O)c2ccc(NC(=O)c3ccc(F)c(F)c3)cc2)c2ccccc12 [Example 35]
≥ 1000	O=C(O)Cc1cnc(C(=O)c2ccc(NC(=O)C3CCOCC3)cc2)c2ccccc12 [Example 81]
< 50	O=C(O)Cc1cnc(Cc2ccc(C(=O)NCCc3ccc4ccccc4c3)cc2)c2ccccc12 [Example 205]
< 50	O=C(O)Cc1cnc(Cc2ccc(C(=O)NCCc3ccc(-c4ccccc4)cc3)cc2)c2ccccc12 [Example 194]
< 50	Cc1cccc(C)c1CCNC(=O)c1ccc(Cc2ncc(CC(=O)O)c3ccccc23)cc1 [Example 217]
< 50	O=C(O)Cc1cnc(Cc2ccc(C(=O)NCCc3nc4ccccc4s3)cc2)c2ccccc12 [Example 250]
50 to 500	O=C(O)Cc1cnc(Cc2ccc(C(=O)NCCc3c(F)cccc3Cl)cc2)c2ccccc12 [Example 190]
50 to 500	O=C(O)Cc1cnc(Cc2ccc(C(=O)NCCc3cc(F)cc(Cl)c3)cc2)c2ccccc12 [Example 216]
50 to 500	O=C(O)Cc1cnc(Cc2ccc(C(=O)NCCNC(=O)c3ccc(Cl)cc3)cc2)c2ccccc12 [Example 247]
